# According to ChEMBL document CHEMBL5634090, “Design of phenothiazine-based cationic amphiphilic derivatives incorporating arginine residues: Potential membrane-active broad-spectrum antimicrobials combating pathogenic bacteria in vitro and in vivo” (Eur J Med Chem, 2023):
# Active and inactive are the calls of the source. The rule behind the calls is not given here.
# Assays:
# [1] = Cytotoxicity against mouse NCTC clone 929 cells assessed as cell survival rate at 6.25 ug/ml by CCK-8 assay relative to control; type: toxicity, cell-based; conditions: NCTC clone 929 (L929) cells, at 6.25 µg/mL, read-out: Activity
# Staphylococcus aureus [2] = test: Antibacterial activity against Staphylococcus aureus ATCC 29213 by microbroth dilution assay; type: functional
# Staphylococcus aureus [3] = test: Antibacterial activity against methicillin resistant Staphylococcus aureus NCTC 10442 by microbroth dilution assay; type: functional
# Klebsiella pneumoniae [4] = test: Antibacterial activity against Klebsiella pneumoniae ATCC 10031 by microbroth dilution assay; type: functional
# [5] = Hemolytic activity in rabbit erythrocytes; type: toxicity, cell-based, Oryctolagus cuniculus, Erythrocyte
# [6] = Cytotoxicity against mouse NCTC clone 929 cells assessed as cell survival rate at 3.125 ug/ml by CCK-8 assay relative to control; type: toxicity, cell-based; conditions: NCTC clone 929 (L929) cells, at 3.125 µg/mL, read-out: Activity
# [7] = Cytotoxicity against mouse NCTC clone 929 cells assessed as cell survival rate at 12.5 ug/ml by CCK-8 assay relative to control; type: toxicity, cell-based; conditions: NCTC clone 929 (L929) cells, at 12.5 µg/mL, read-out: Activity
# [8] = Cytotoxicity against HEK293 cells assessed as cell survival rate at 3.125 ug/ml by CCK-8 assay relative to control; type: toxicity, cell-based; conditions: human, at 3.125 µg/mL, read-out: Activity
# [9] = Cytotoxicity against HEK293 cells assessed as cell survival rate at 6.25 ug/ml by CCK-8 assay relative to control; type: toxicity, cell-based; conditions: human, at 6.25 µg/mL, read-out: Activity
# [10] = Cytotoxicity against HEK293 cells assessed as cell survival rate at 25 ug/ml by CCK-8 assay relative to control; type: toxicity, cell-based; conditions: human, at 25 µg/mL, read-out: Activity
# Staphylococcus aureus [11] = test: Antibacterial activity against Staphylococcus aureus ATCC 29213 assessed as log reduction in bacterial load at 8 times MIC measured after 2 hrs by time kill assay; type: functional
# Klebsiella pneumoniae [12] = test: Antibacterial activity against Klebsiella pneumoniae ATCC 10031 assessed as log reduction in bacterial load at 8 times MIC measured after 2 hrs by time kill assay; type: functional
# [13] = Selectivity index, ratio of CC50 for cytotoxicity against mouse NCTC clone 929 cells to MIC for antibacterial activity against methicillin resistant Staphylococcus aureus NCTC 10442; type: toxicity, cell-based; conditions: read-out: Selectivity Index
# [14] = Selectivity index, ratio of CC50 for cytotoxicity against HEK293 cells to MIC for antibacterial activity against methicillin resistant Staphylococcus aureus N315; type: toxicity, cell-based; conditions: human, read-out: Selectivity Index
# [15] = Selectivity index, ratio of CC50 for cytotoxicity against HEK293 cells to MIC for antibacterial activity against Pseudomonas aeruginosa ATCC 9027; type: toxicity, cell-based; conditions: human, read-out: Selectivity Index
# Staphylococcus aureus [16] = test: Antibacterial activity against Staphylococcus aureus ATCC 29213 in presence of 1 mmol/L Mg2+ by broth microdilution method; type: functional
# Staphylococcus aureus [17] = test: Antibacterial activity against Staphylococcus aureus ATCC 29213 in presence of 19 umol/L Zn2+ by broth microdilution method; type: functional
# Staphylococcus aureus [18] = test: Antibacterial activity against methicillin resistant Staphylococcus aureus N315 in presence of 4.5 mmol/L K+ by broth microdilution method; type: functional
# Staphylococcus aureus [19] = test: Antibacterial activity against methicillin resistant Staphylococcus aureus N315 in presence of 20 umol/L Fe3+ by broth microdilution method; type: functional
# Staphylococcus aureus [20] = test: Antibacterial activity against methicillin resistant Staphylococcus aureus NCTC 10442 in presence of 20 umol/L Fe2+ by broth microdilution method; type: functional
# Escherichia coli [21] = test: Antibacterial activity against Escherichia coli ATCC 25922 in presence of 20 umol/L Fe2+ by broth microdilution method; type: functional
# Escherichia coli [22] = test: Antibacterial activity against Escherichia coli ATCC 25922 in presence of 19 umol/L Zn2+ by broth microdilution method; type: functional
# Escherichia coli [23] = test: Antibacterial activity against Escherichia coli ATCC 25922 in presence of 20 umol/L Fe3+ by broth microdilution method; type: functional
# Klebsiella pneumoniae [24] = test: Antibacterial activity against Klebsiella pneumoniae ATCC 10031 in presence of 2.5 mmol/L Ca2+ by broth microdilution method; type: functional
# Klebsiella pneumoniae [25] = test: Antibacterial activity against Klebsiella pneumoniae ATCC 10031 in presence of 1 mmol/L Mg2+ by broth microdilution method; type: functional
# Klebsiella pneumoniae [26] = test: Antibacterial activity against Klebsiella pneumoniae ATCC 14581 in presence of 140 mmol/L Na+ by broth microdilution method; type: functional
# Klebsiella pneumoniae [27] = test: Antibacterial activity against Klebsiella pneumoniae ATCC 14581 in presence of 20 umol/L Fe3+ by broth microdilution method; type: functional
# Pseudomonas aeruginosa [28] = test: Antibacterial activity against Pseudomonas aeruginosa ATCC 9027 in presence of 4.50 mmol/L K+ by broth microdilution method; type: functional
# Pseudomonas aeruginosa [29] = test: Antibacterial activity against Pseudomonas aeruginosa ATCC 9027 in presence of 1.00 mmol/L Mg2+ by broth microdilution method; type: functional
# Klebsiella pneumoniae [30] = test: Antibacterial activity against Klebsiella pneumoniae ATCC 10031 assessed as loss in cell viability at 8 times MIC incubated for 4 hrs by LIVE/DEAD BacLight bacterial viability assay; type: functional, organism-based; conditions: Cell membrane
# Staphylococcus aureus [31] = test: Inhibition of biofilm formation in Staphylococcus aureus ATCC 29213 at 6.25 ug/ml by crystal violet staining assay relative to control; type: functional
# Klebsiella pneumoniae [32] = test: Inhibition of biofilm formation in Klebsiella pneumoniae ATCC 10031 at 3.125 ug/ml by crystal violet staining assay relative to control; type: functional
# Staphylococcus aureus [33] = test: Antibiofilm activity against 24 hrs preformed biofilm in Staphylococcus aureus ATCC 29213 assessed as reduction in biofilm viability at 0.78 ug/ml relative to control; type: functional; conditions: dose 0.78 µg/ml
# Staphylococcus aureus [34] = test: Antibiofilm activity against 24 hrs preformed biofilm in Staphylococcus aureus ATCC 29213 assessed as reduction in biofilm viability at 6.25 ug/ml relative to control; type: functional; conditions: dose 6.25 µg/ml
# Klebsiella pneumoniae [35] = test: Antibiofilm activity against 24 hrs preformed biofilm in Klebsiella pneumoniae ATCC 10031 assessed as reduction in biofilm viability at 0.78 ug/ml relative to control; type: functional; conditions: dose 0.78 µg/ml
# Klebsiella pneumoniae [36] = test: Antibiofilm activity against 24 hrs preformed biofilm in Klebsiella pneumoniae ATCC 10031 assessed as reduction in biofilm viability at […] ug/ml relative to control; type: functional; conditions: dose […] microg/ml; 1.56 ug/mL
# Staphylococcus aureus [37] = test: Induction of resistance development in Staphylococcus aureus ATCC 29213 assessed as fold increase in MIC treated over 20 serial passages by microdilution assay; type: functional
# Staphylococcus aureus [38] = test: Antibacterial activity against Staphylococcus aureus ATCC 29213 infected in cyclophosphamide immunosuppressed keratitis mouse model assessed as log reduction in number of viable bacterial colonies at 10 mg/ml administrated tropically; type: functional
# Pseudomonas aeruginosa [39] = test: Antibacterial activity against Pseudomonas aeruginosa ATCC 9027 infected in cyclophosphamide immunosuppressed keratitis mouse model assessed as log reduction in number of viable bacterial colonies at 10 mg/ml administrated tropically; type: functional
# Pseudomonas aeruginosa [40] = test: Antibacterial activity against Pseudomonas aeruginosa ATCC 9027 infected in cyclophosphamide immunosuppressed keratitis mouse model assessed as reduction in corneal injury at 10 mg/ml administrated tropically; type: functional, organism-based
smiles,measurement,setting,value
CCCCCCCN1c2ccccc2Sc2ccc(OCC(=O)N[C@@H](CCCNC(=N)N)C(=O)N[C@@H](CCCNC(=N)N)C(N)=O)cc21,viability at 6.25 ug/ml,[1],91.2%
same,MIC,Staphylococcus aureus [2],1.56 µg/mL
same,MIC,Staphylococcus aureus [3],1.56 µg/mL
same,MIC,Klebsiella pneumoniae [4],3.12 µg/mL
same,HC50,[5],281 µg/mL
same,viability at 3.125 ug/ml,[6],97.9%
same,viability at 12.5 ug/ml,[7],70.8%
same,viability at 3.125 ug/ml,[8],95.4%
same,viability at 6.25 ug/ml,[9],87.7%
same,viability at 25 ug/ml,[10],74.4%
same,log(activity),Staphylococcus aureus [11],>3
same,log(activity),Klebsiella pneumoniae [12],>3
same,selectivity ratio,[13],8
same,selectivity ratio,[14],8
same,selectivity ratio,[15],8
same,MIC,Staphylococcus aureus [16],3.12 µg/mL
same,MIC,Staphylococcus aureus [17],1.56 µg/mL
same,MIC,Staphylococcus aureus [18],1.56 µg/mL
same,MIC,Staphylococcus aureus [19],1.56 µg/mL
same,MIC,Staphylococcus aureus [20],1.56 µg/mL
same,MIC,Escherichia coli [21],3.12 µg/mL
same,MIC,Escherichia coli [22],3.12 µg/mL
same,MIC,Escherichia coli [23],3.12 µg/mL
same,MIC,Klebsiella pneumoniae [24],3.12 µg/mL
same,MIC,Klebsiella pneumoniae [25],3.12 µg/mL
same,MIC,Klebsiella pneumoniae [26],3.12 µg/mL
same,MIC,Klebsiella pneumoniae [27],6.25 µg/mL
same,MIC,Pseudomonas aeruginosa [28],6.25 µg/mL
same,MIC,Pseudomonas aeruginosa [29],6.25 µg/mL
same,Activity,Klebsiella pneumoniae [30],Active
same,inhibition at 6.25 µg/mL,Staphylococcus aureus [31],95.1%
same,inhibition at 3.125 µg/mL,Klebsiella pneumoniae [32],73.8%
same,Activity,Staphylococcus aureus [33],91.66%
same,Activity,Staphylococcus aureus [34],15.93%
same,Activity,Klebsiella pneumoniae [35],82.83%
same,Activity,Klebsiella pneumoniae [36],73.4%
same,fold change (FC),Staphylococcus aureus [37],< 4
same,log(activity),Staphylococcus aureus [38],5.28
same,log(activity),Pseudomonas aeruginosa [39],5.93
same,Activity,Pseudomonas aeruginosa [40],inactive
